Results on 25 compounds are retold here after patent publication US20110313156A1 (BOEHRINGER INGELHEIM INTERNATIONAL GMBH, priority 2008, published 2011).

Each structure is given as a SMILES string.

The target in the assay is T1, His6-PDK1 (aa 52-556) (Homo sapiens, UniProt O15530).
T1 construct: 15 μL His6-PDK1 (aa 52-556) 3.33 ng/well); host or cells: baculovirus-infected insect cells
T1 sequence (O15530 52-556): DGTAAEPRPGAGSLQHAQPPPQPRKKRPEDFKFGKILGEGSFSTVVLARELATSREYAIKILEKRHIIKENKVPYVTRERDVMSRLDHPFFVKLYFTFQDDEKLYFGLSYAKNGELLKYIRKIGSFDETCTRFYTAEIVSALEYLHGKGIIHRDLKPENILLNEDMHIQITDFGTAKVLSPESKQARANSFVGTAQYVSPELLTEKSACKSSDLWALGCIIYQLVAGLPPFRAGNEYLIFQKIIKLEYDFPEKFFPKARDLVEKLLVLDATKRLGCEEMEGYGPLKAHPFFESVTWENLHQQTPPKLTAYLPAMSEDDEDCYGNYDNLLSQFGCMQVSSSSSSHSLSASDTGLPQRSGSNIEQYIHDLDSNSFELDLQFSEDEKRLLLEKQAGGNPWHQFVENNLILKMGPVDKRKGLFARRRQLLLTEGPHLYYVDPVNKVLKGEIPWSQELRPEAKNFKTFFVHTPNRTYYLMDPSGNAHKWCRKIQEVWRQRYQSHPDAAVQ
Briefly: PDK1 kinase assay III (with Tween 20). In kind it is biochemical. Conditions: compound at 10 μM; PDK1 kinase assay III (values without asterisk); read-out: % CTL (residual activity of the enzyme relative to DMSO control). Put shortly:
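Started with ATP, incubated 90 min at ambient temperature, then stopped with phosphoric acid. Asterisked values come from assay II (24 h or 5 min incubation).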
For the compound `COC(=O)c1ccc(Nc2ncc3cc(/C=C/CNC(=O)c4c(C)n(C)n(Cc5ccc(F)c(F)c5)c4=O)ccc3n2)cc1OC`, the remaining activity at 10 µM worked out at 13.6%.

With `COc1ccc(Nc2ncc3cc(C#CCNC(=O)c4c(C)n(C)n(Cc5ccc(F)c(F)c5)c4=O)ccc3n2)cc1`, the remaining activity at 10 µM was 14.7%.

Regarding `CNc1ncc2cc(/C=C/CNC(=O)c3cncn(Cc4ccc(F)c(F)c4)c3=O)cc(OCCN)c2n1` [III-59], the remaining activity at 10 µM came out at 18.3%.

As for `O=C(NC/C=C/c1ccc2nc(NC3CC3)ncc2c1)c1cncn(Cc2ccc(F)c(F)c2)c1=O`, the remaining activity at 10 µM stood at 17%.

Turning to `CCOC(=O)c1ccc(Nc2ncc3cc(C#CCNC(=O)c4cncn(Cc5ccc(F)c(F)c5)c4=O)ccc3n2)cc1` [III-39, ethyl-4-({6-[3-({[1-(3,4-difluorobenzyl)-6-oxo-1,6-dihydropyrimidin-5-yl]carbonyl}amino)prop-1-yn-1-yl]quinazolin-2-yl}amino)benzoate], the remaining activity at 10 µM amounted to 19%.

With `O=C(NC/C=C/c1cc(OC2CCNCC2)c2nc(Nc3ccccc3)ncc2c1)c1cncn(Cc2ccc(F)c(F)c2)c1=O` [III-19, 1-(3,4-difluorobenzyl)-6-oxo-N-{(2E)-3-[2-(phenylamino)-8-(piperidin-4-yloxy)quinazolin-6-yl]prop-2-en-1-yl}-1,6-dihydropyrimidine-5-carboxamide], the remaining activity at 10 µM worked out at 17.5%.

Regarding `CN1CCC(N(C)c2ccc(Nc3ncc4c(F)c(C#CCNC(=O)c5cncn(Cc6ccc(F)c(F)c6)c5=O)ccc4n3)cc2)CC1` [III-26, 1-(3,4-difluorobenzyl)-N-{3-[5-fluoro-2-({4-[methyl(1-methylpiperidin-4-yl)amino]phenyl}amino)quinazolin-6-yl]prop-2-yn-1-yl}-6-oxo-1,6-dihydropyrimidine-5-carboxamide], the remaining activity at 10 µM is 12.4%.

Take `O=C(NC/C=C/c1ccc2ncncc2c1)c1cncn(Cc2ccc(F)c(F)c2)c1=O` [IV-56, 1-(3,4-difluorobenzyl)-6-oxo-N-[(2E)-3-(quinazolin-6-yl)prop-2-en-1-yl]-1,6-dihydropyrimidine-5-carboxamide]: the remaining activity at 10 µM came to 18.8%.

Regarding `Cc1c(C(=O)NCC#Cc2ccc3nc(Nc4ccc(N(C)C)cc4)ncc3c2)c(=O)n(Cc2ccc(F)c(F)c2)n1C`, the remaining activity at 10 µM was determined as 14.3%.

As for `O=C(NCc1ccc(Nc2ncnc3[nH]c(-c4ccccc4)cc23)cc1)c1cncn(Cc2ccc(F)c(F)c2)c1=O` [IV-24, 1-(3,4-difluorobenzyl)-6-oxo-N-{4-[(6-phenyl-7H-pyrrolo[2,3-d]pyrimidin-4-yl)amino]benzyl}-1,6-dihydropyrimidine-5-carboxamide], the remaining activity at 10 µM is 15.7%.

Take `CN1CCC(N(C)c2ccc(Nc3ncc4cc(C#CCNC(=O)c5nccn(Cc6ccc(F)c(F)c6)c5=O)ccc4n3)cc2)CC1` [III-34, 4-(3,4-difluorobenzyl)-N-{3-[2-({4-[methyl(1-methylpiperidin-4-yl)amino]phenyl}amino)quinazolin-6-yl]prop-2-yn-1-yl}-3-oxo-3,4-dihydropyrazine-2-carboxamide]: the remaining activity at 10 µM was found to be 10.7%.

`CN1CCC(N(C)c2ccc(Nc3ncc4cc(C#CCNC(=O)c5ccnn(Cc6ccc(F)c(F)c6)c5=O)ccc4n3)cc2)CC1` [III-36, 2-(3,4-difluorobenzyl)-N-{3-[2-({4-[methyl(1-methylpiperidin-4-yl)amino]phenyl}amino)quinazolin-6-yl]prop-2-yn-1-yl}-3-oxo-2,3-dihydropyridazine-4-carboxamide]: the remaining activity at 10 µM amounted to 13.2%.

Regarding `CN1CCC(N(C)c2ccc(Nc3ncc4cc(/C=C/CNC(=O)c5nc(Cl)cn(Cc6ccc(F)c(F)c6)c5=O)ccc4n3)cc2)CC1`, the remaining activity at 10 µM worked out at 12.6%.

Regarding `CNc1ncc2cc(/C=C/CNC(=O)c3cncn(Cc4ccc(F)c(F)c4)c3=O)ccc2n1`, the remaining activity at 10 µM was determined as 21.7%.

As for `Cc1c[nH]c(/C=C2\C(=O)Nc3cc(/C=C/CNC(=O)c4cncn(Cc5ccc(F)c(F)c5)c4=O)ccc32)n1` [I-38, 1-(3,4-difluorobenzyl)-N-[(2E)-3-{(3Z)-3-[(4-methyl-1H-imidazol-2-yl)methylidene]-2-oxo-2,3-dihydro-1H-indol-6-yl}prop-2-en-1-yl]-6-oxo-1,6-dihydropyrimidine-5-carboxamide], the remaining activity at 10 µM was found to be 20.5%.

For the compound `Cn1c(=O)c(C#CCNC(=O)c2cncn(Cc3ccc(F)c(F)c3)c2=O)cc2cnc(Nc3ccccc3)nc21` [III-22, 1-(3,4-difluorobenzyl)-N-{3-[8-methyl-7-oxo-2-(phenylamino)-7,8-dihydropyrido-[2,3-d]pyrimidin-6-yl]prop-2-yn-1-yl}-6-oxo-1,6-dihydropyrimidine-5-carboxamide], the remaining activity at 10 µM came out at 24.9%.

For the compound `Cc1cccc(Nc2ncc3cc(C#CCNC(=O)c4c(C)n(C)n(Cc5ccc(F)c(F)c5)c4=O)ccc3n2)c1` [III-79], the remaining activity at 10 µM was 20%.

Turning to `CN1CCC(N(C)c2ccc(Nc3ncc4cc(/C=C/CNC(=O)c5cncn(Cc6ccc(F)c(F)c6)c5=O)ccc4n3)cc2)CC1` [IV-45, 1-(3,4-difluorobenzyl)-N-{(2E)-3-[2-({4-[methyl(1-methylpiperidin-4-yl)amino]-phenyl}amino)quinazolin-6-yl]prop-2-en-1-yl}-6-oxo-1,6-dihydropyrimidine-5-carboxamide], the remaining activity at 10 µM was found to be 15.3%.

Turning to `Cc1c(C#CCNC(=O)c2c(C)n(C)n(Cc3ccc(F)c(F)c3)c2=O)c(=O)n(CCN)c2nc(Nc3ccc(N4CCOCC4)cc3)ncc12` [IV-60, N-{3-[8-(2-aminoethyl)-5-methyl-2-{[4-(morpholin-4-yl)phenyl]amino}-7-oxo-7,8-dihydropyrido[2,3-d]pyrimidin-6-yl]prop-2-yn-1-yl}-2-(3,4-difluorobenzyl)-1,5-dimethyl-3-oxo-2,3-dihydro-1H-pyrazole-4-carboxamide], the remaining activity at 10 µM worked out at 13.3%.

On to `O=C(NC/C=C/c1cc(OC2CCNCC2)c2nc(Nc3ccc(N4CCOCC4)cc3)ncc2c1)c1cncn(Cc2ccc(F)c(F)c2)c1=O`, for which the remaining activity at 10 µM amounted to 12.3%.

As to `Cc1c(C(=O)NCC#Cc2ccc3nc(NC4CCOCC4)ncc3c2)c(=O)n(Cc2ccc(F)c(F)c2)n1C`, the remaining activity at 10 µM was 25%.

On to `Cc1c(C(=O)NCC#Cc2ccc3nc(NC(C)C)ncc3c2)c(=O)n(Cc2ccc(F)c(F)c2)n1C`, for which the remaining activity at 10 µM stood at 24.4%.

Regarding `Cc1c(C(=O)NCc2ccc(-c3cnc4[nH]ccc4c3)s2)c(=O)n(Cc2ccc(F)c(F)c2)n1C` [IV-42, 2-(3,4-difluorobenzyl)-1,5-dimethyl-3-oxo-N-{[5-(1H-pyrrolo[2,3-b]pyridin-5-yl)thiophen-2-yl]methyl}-2,3-dihydro-1H-pyrazole-4-carboxamide], the remaining activity at 10 µM is 27.7%.

For `COc1cc(C(=O)NC2CCN(C)CC2)ccc1Nc1ncc2cc(C#CCNC(=O)c3c(C)n(C)n(Cc4ccc(F)c(F)c4)c3=O)ccc2n1`, the remaining activity at 10 µM stood at 61.8%.

In the case of `CN1CCC(Nc2ccc(Nc3ncc4cc(C#CCNC(=O)c5cc(Cl)nn(Cc6ccc(F)c(F)c6)c5=O)ccc4n3)cc2F)CC1` [III-38, 6-chloro-2(3,4-difluorobenzyl)-N-{3-[2-({3-fluoro-4-[(1-methylpiperidin-4-yl)-amino]phenyl}amino)quinazolin-6-yl]prop-2-yn-1-yl}-3-oxo-2,3-dihydropyridazine-4-carboxamide], the remaining activity at 10 µM worked out at 13.2%.
